This assay addresses Mitotic checkpoint serine/threonine-protein kinase BUB1 (Homo sapiens, UniProt O43683). Briefly: To this end, 100-fold concentrated compound solutions (in DMSO) were previously prepared by serial dilution (1:3.4) of 2 mM stocks in a clear low volume 384-well source microtiter plate (Greiner Bio-One, Frickenhausen, Germany), from which 50 nl of compounds were transferred into a black low volume test microtiter plate from the same supplier. […] The resulting mixture (5 μl final volume) was incubated at 22° C. during 60 min., and the reaction was stopped by the addition of 5 μl of an aqueous EDTA-solution (50 mM EDTA, in 100 mM HEPES pH 7.5 and 0.2% (w/v) bovine serum albumin) which also contained the TR-FRET detection reagents (0.2 μM streptavidin-XL665 [Cisbio Bioassays, Codolet, France] and 1 nM anti-phosho-Serine antibody [Merck Millipore, cat. #35-001] and 0.4 nM LANCE EU-W1024 labeled anti-mouse IgG antibody [Perkin-Elmer, product no. AD0077, alternatively a Terbium-cryptate-labeled anti-mouse IgG antibody from Cisbio Bioassays can be used]). The stopped reaction mixture was further incubated 1 h at 22° C. in order to allow the formation of complexes between peptides and detection reagents. Subsequently, the amount of product was evaluated by measurement of the resonance energy transfer from the Eu-chelate-antlbody complex recognizing the Phosphoserlne residue to the streptavidin-XL665 bound to the biotin moiety of the peptide. […] IC50 values were calculated by fitting the normalized inhibition data to a 4-parameter logistic equation (Minimum, Maximum, IC50, Hill; Y=Max+(Min−Max)/(1+(X/IC50)Hill)) using a Bayer-proprietary analysis software.

Our source for the IC50 values is ChEMBL document CHEMBL5726855, “Substituted benzylindazoles for use as Bub1 kinase inhibitors in the treatment of hyperproliferative diseases” (2019).

Mitotic checkpoint serine/threonine-protein kinase BUB1, sequence (O43683 whole entry): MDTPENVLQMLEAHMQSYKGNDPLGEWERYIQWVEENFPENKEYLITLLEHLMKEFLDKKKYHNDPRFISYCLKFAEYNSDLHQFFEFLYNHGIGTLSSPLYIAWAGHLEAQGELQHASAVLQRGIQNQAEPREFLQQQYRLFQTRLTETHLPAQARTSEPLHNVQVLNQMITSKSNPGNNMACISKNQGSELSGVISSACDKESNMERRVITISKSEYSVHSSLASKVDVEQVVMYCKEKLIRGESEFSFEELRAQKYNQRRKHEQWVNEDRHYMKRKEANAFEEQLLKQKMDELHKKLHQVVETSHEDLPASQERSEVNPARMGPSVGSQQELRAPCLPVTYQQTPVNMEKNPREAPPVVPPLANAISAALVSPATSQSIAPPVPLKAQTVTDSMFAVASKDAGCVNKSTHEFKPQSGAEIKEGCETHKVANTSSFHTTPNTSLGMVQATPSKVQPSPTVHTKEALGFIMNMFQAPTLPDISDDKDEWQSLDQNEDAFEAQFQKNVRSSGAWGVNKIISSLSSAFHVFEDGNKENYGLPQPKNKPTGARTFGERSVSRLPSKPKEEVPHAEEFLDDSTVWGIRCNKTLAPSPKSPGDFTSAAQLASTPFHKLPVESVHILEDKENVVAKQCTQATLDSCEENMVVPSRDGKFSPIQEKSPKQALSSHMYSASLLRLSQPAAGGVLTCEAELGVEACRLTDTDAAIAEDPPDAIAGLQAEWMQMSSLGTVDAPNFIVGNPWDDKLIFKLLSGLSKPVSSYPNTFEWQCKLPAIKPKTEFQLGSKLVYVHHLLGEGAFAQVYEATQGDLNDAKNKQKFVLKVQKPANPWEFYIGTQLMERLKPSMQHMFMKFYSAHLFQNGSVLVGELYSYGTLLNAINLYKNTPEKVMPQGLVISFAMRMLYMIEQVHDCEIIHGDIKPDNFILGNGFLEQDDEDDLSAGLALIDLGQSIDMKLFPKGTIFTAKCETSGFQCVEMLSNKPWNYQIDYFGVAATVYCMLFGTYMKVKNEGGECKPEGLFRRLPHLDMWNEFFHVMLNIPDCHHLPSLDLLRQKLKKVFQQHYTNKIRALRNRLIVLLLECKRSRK

Turning to `COc1cnc(-c2nn(Cc3c(F)c(F)c(OCC(F)(F)F)c(F)c3F)c3ccccc23)nc1N(Cc1c(F)c(F)c(OCC(F)(F)F)c(F)c1F)c1ccncc1`, the IC50 was 3.2 µM.

As for `CCOc1cc(F)c(Cn2nc(-c3ncc(OCCSC)c(Nc4ccncc4)n3)c3ccccc32)c(F)c1`, the IC50 was 0.014 µM.

With `CCOc1cc(F)c(Cn2nc(-c3ncc(OCCOCCO)c(Nc4ccncc4)n3)c3ccccc32)c(F)c1`, the IC50 is 0.0074 µM.

For `COc1cnc(-c2nn(Cc3ccc(C#N)cc3F)c3ccccc23)nc1N(Cc1ccc(C#N)cc1F)c1ccncc1`, the IC50 was 1.1 µM.

Take `COc1cnc(-c2nn(Cc3c(F)cc(F)cc3F)c3ccccc23)nc1N(Cc1c(F)cc(F)cc1F)c1ccncc1`: the IC50 is 0.89 µM.
